Results as given in article PMC8485799, “Synthesis and Antiprotozoal Profile of 3,4,5‐Trisubstituted Isoxazoles” (ChemistryOpen, 2021).
Like-named read-outs stand apart in the source and are kept apart here.

Legend:
[1] = test system: promastigote forms of Leishmania amazonensis (WHOM/BR/75/JOSEFA strain); assay: Antiproliferative assay (XTT), promastigote forms, 72 h; format: cell-based; settings: for IC50: promastigote form, 72 h, XTT, read-out: L. amazonensis IC50; for SIL-F, selectivity index (Fibroblast CC50/L. amazonensis IC50): fibroblast vs promastigote; for SIL-M, selectivity index (Macrophages CC50/L. amazonensis IC50): macrophages vs promastigote
Outline: (§1)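 Parasites at 1×10^6 mL^−1 with compound (DMSO stock diluted in medium): L. amazonensis promastigotes in Warren medium + 10% FBS at 25 °C for 72 h, T. cruzi epimastigotes in LIT medium + 10% FBS at 28 °C for 96 h. Viability by XTT/PMS for 4 h, absorbance at 450 nm. IC50 from % viable versus control.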

[2] = test system: epimastigote forms of Trypanosoma cruzi (Y strain); assay: Antiproliferative assay (XTT), epimastigote forms, 96 h; format: cell-based; settings: for IC50: epimastigote form, 96 h, XTT, read-out: T. cruzi IC50; for SIT-F, selectivity index (Fibroblast CC50/T. cruzi IC50): fibroblast vs epimastigote; for SIT-M, selectivity index (Macrophages CC50/T. cruzi IC50): macrophages vs epimastigote
Outline: as §1

macrophages (J774 A1) = assay: Cytotoxicity assay in mammalian cells (MTT), macrophages, 48 h; format: cell-based
Outline: (§2)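 Cells pre-grown 24 h to confluence (L929 2.5×10^5, J774 A1 5×10^5 cells.mL^−1), then exposed to compound dilutions at 37 °C, 5 % CO2: L929 in DMEM/10 % FBS for 72 h, J774 A1 in RPMI‐1640/10 % FBS for 48 h. MTT (2 mg.mL^−1, 4 h), formazan read at […]; CC50 from viability versus untreated controls.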

fibroblast line (L929) = assay: Cytotoxicity assay in mammalian cells (MTT), fibroblasts, 72 h; format: cell-based
Outline: as §2

[3] = Cytotoxicity assay in mammalian cells (MTT), macrophages, 48 h; format: cell-based; settings: mouse, J774 A1 macrophages, pH 7.2; 50 % inhibition of macrophages growth, 48 h, MTT
Outline: as §2

[4] = Cytotoxicity assay in mammalian cells (MTT), fibroblasts, 72 h; format: cell-based; settings: mouse, L929 fibroblast cells, pH 7.2; 50 % inhibition of fibroblast growth, 72 h, MTT
Outline: as §2

[5] = test system: both forms of L. amazonensis; parameters: method as in PMID 27597410; settings: cited from earlier work

CCOC(=O)c1noc(-c2ccc([N+](=O)[O-])cc2)c1CNc1ccccc1 [2 aa, 3‐Carboxyethyl‐4‐(phenyl)aminomethyl‐5‐(4‐nitrophenyl)isoxazole]
IC50 [1]: 34.8 ± 1.7 µM | IC50 [2]: 54.2 ± 3 µM | CC50 (macrophages (J774 A1)): 202 ± 6.5 µM | CC50 (fibroblast line (L929)): 270 ± 8.9 µM

O=C(N/N=C/c1ccccn1)c1noc(-c2ccc(Cl)cc2)c1CNc1ccccc1 [5 da]
IC50 ([1]; Leishmania amazonensis): 69 ± 8.7 µM | SIL-F, selectivity index (Fibroblast CC50/L. amazonensis IC50) [1]: 4.32 | SIL-M, selectivity index (Macrophages CC50/L. amazonensis IC50) [1]: 4.19 | melting point: 180.5 to 182.9 °C | IC50 ([2]; Trypanosoma cruzi): 72.6 ± 3.8 µM | SIT-F, selectivity index (Fibroblast CC50/T. cruzi IC50) [2]: 4.10 | SIT-M, selectivity index (Macrophages CC50/T. cruzi IC50) [2]: 3.98 | CC50 at 48 h [3]: 289 ± 9.5 µM | CC50 at 72 h [4]: 298 ± 5.7 µM

O=C(N/N=C/c1ccccn1)c1noc(-c2ccc(Cl)cc2)c1CNc1ccc(Cl)cc1 [5 db]
IC50 ([1]; Leishmania amazonensis): 87.9 ± 2 µM | SIL-F, selectivity index (Fibroblast CC50/L. amazonensis IC50) [1]: 2.30 | SIL-M, selectivity index (Macrophages CC50/L. amazonensis IC50) [1]: 2.26 | melting point: 175.7 to 176.4 °C | IC50 ([2]; Trypanosoma cruzi): 97.3 ± 3.6 µM | SIT-F, selectivity index (Fibroblast CC50/T. cruzi IC50) [2]: 2.08 | SIT-M, selectivity index (Macrophages CC50/T. cruzi IC50) [2]: 2.04 | CC50 at 48 h [3]: 198 ± 4.6 µM | CC50 at 72 h [4]: 203 ± 3.1 µM

COc1ccc(NCc2c(C(=O)N/N=C/c3ccccn3)noc2-c2ccc(Cl)cc2)cc1 [5 dc]
IC50 ([1]; Leishmania amazonensis): 17.4 ± 2 µM | SIL-F, selectivity index (Fibroblast CC50/L. amazonensis IC50) [1]: 6.17 | SIL-M, selectivity index (Macrophages CC50/L. amazonensis IC50) [1]: 5.67 | melting point: 210.4 to 212.4 °C | IC50 ([2]; Trypanosoma cruzi): 17.9 ± 0.7 µM | SIT-F, selectivity index (Fibroblast CC50/T. cruzi IC50) [2]: 6.00 | SIT-M, selectivity index (Macrophages CC50/T. cruzi IC50) [2]: 5.51 | CC50 at 48 h [3]: 98.6 ± 2.3 µM | CC50 at 72 h [4]: 107 ± 2.2 µM

O=C(N/N=C/c1ccc(-c2cccs2)s1)c1noc(-c2ccc([N+](=O)[O-])cc2)c1CNc1ccccc1 [6 aa, 3‐[(2E)‐N'‐(2,2'‐bithienyl‐5‐methylene)hydrazinecarbonyl]‐4‐(phenyl)aminomethyl‐5‐(4‐nitrophenyl)isoxazole]
IC50 ([1]; Leishmania amazonensis): 32.9 ± 0.9 µM | SIL-F, selectivity index (Fibroblast CC50/L. amazonensis IC50) [1]: 8.74 | SIL-M, selectivity index (Macrophages CC50/L. amazonensis IC50) [1]: 6.37 | melting point: 232.5 to 233.9 °C | IC50 ([2]; Trypanosoma cruzi): 38.4 ± 2.1 µM | SIT-F, selectivity index (Fibroblast CC50/T. cruzi IC50) [2]: 7.48 | SIT-M, selectivity index (Macrophages CC50/T. cruzi IC50) [2]: 5.46 | CC50 at 48 h [3]: 210 ± 9.6 µM | CC50 at 72 h [4]: 287 ± 7.3 µM

O=C(N/N=C/c1ccc(-c2cccs2)s1)c1noc(-c2ccccc2)c1CNc1ccc(Cl)cc1 [6 bb]
IC50 ([1]; Leishmania amazonensis): 18.4 ± 1.2 µM | SIL-F, selectivity index (Fibroblast CC50/L. amazonensis IC50) [1]: 12.31 | SIL-M, selectivity index (Macrophages CC50/L. amazonensis IC50) [1]: 10.22 | melting point: 211.1 to 213.9 °C | IC50 ([2]; Trypanosoma cruzi): 19 ± 0.7 µM | SIT-F, selectivity index (Fibroblast CC50/T. cruzi IC50) [2]: 11.92 | SIT-M, selectivity index (Macrophages CC50/T. cruzi IC50) [2]: 9.90 | CC50 at 48 h [3]: 188 ± 7.4 µM | CC50 at 72 h [4]: 226 ± 8.7 µM

COc1ccc(NCc2c(C(=O)N/N=C/c3ccc(-c4cccs4)s3)noc2-c2ccccc2)cc1 [6 bc]
IC50 ([1]; Leishmania amazonensis): 17.2 ± 3.1 µM | SIL-F, selectivity index (Fibroblast CC50/L. amazonensis IC50) [1]: 11.5 | SIL-M, selectivity index (Macrophages CC50/L. amazonensis IC50) [1]: 9.91 | melting point: 165.5 to 167 °C | IC50 ([2]; Trypanosoma cruzi): 18.1 ± 2.4 µM | SIT-F, selectivity index (Fibroblast CC50/T. cruzi IC50) [2]: 10.9 | SIT-M, selectivity index (Macrophages CC50/T. cruzi IC50) [2]: 9.42 | CC50 at 48 h [3]: 170 ± 3.3 µM | CC50 at 72 h [4]: 198 ± 5.9 µM

O=C(N/N=C/c1ccc(-c2cccs2)s1)c1noc(-c2ccc(Cl)cc2)c1CNc1ccccc1 [6 da]
IC50 ([1]; Leishmania amazonensis): 28 ± 1.3 µM | SIL-F, selectivity index (Fibroblast CC50/L. amazonensis IC50) [1]: 12.39 | SIL-M, selectivity index (Macrophages CC50/L. amazonensis IC50) [1]: 11.14 | melting point: 208.4 to 209.9 °C | IC50 ([2]; Trypanosoma cruzi): 27.2 ± 2.5 µM | SIT-F, selectivity index (Fibroblast CC50/T. cruzi IC50) [2]: 12.76 | SIT-M, selectivity index (Macrophages CC50/T. cruzi IC50) [2]: 11.47 | CC50 at 48 h [3]: 312 ± 4.3 µM | CC50 at 72 h [4]: 347 ± 8.4 µM

COc1ccc(NCc2c(C(=O)N/N=C/c3ccc(-c4cccs4)s3)noc2-c2ccc(Cl)cc2)cc1 [6 dc]
IC50 ([1]; Leishmania amazonensis): 32.7 ± 3 µM | SIL-F, selectivity index (Fibroblast CC50/L. amazonensis IC50) [1]: 12.16 | SIL-M, selectivity index (Macrophages CC50/L. amazonensis IC50) [1]: 9.45 | melting point: 199.9 to 202.7 °C | IC50 ([2]; Trypanosoma cruzi): 30.5 ± 1.6 µM | SIT-F, selectivity index (Fibroblast CC50/T. cruzi IC50) [2]: 13.0 | SIT-M, selectivity index (Macrophages CC50/T. cruzi IC50) [2]: 10.1 | CC50 at 48 h [3]: 309 ± 8 µM | CC50 at 72 h [4]: 398 ± 7.8 µM

O=C(N/N=C/c1cccs1)c1nn(-c2ccccc2)c(=O)c2c1cnn2-c1ccccc1 [IV]
Activity against both forms of L. amazonensis [5]: good activity values

O=C(N/N=C/c1ccc(-c2cccs2)s1)c1nn(-c2ccccc2)c(=O)c2c1cnn2-c1ccccc1 [V]
Activity against both forms of L. amazonensis [5]: good activity values
